Test results reported in patent publication US10226452B2, “Benzoxazolone derivatives as acid ceramidase inhibitors, and their use as medicaments” (FONDAZIONE ISTITUTO ITALIANO DI TECNOLOGIA, priority 2014, dated 2019).

What was measured:
AC = AC (Homo sapiens (Human), UniProt Q13510); test: AC activity in A375 human melanoma cells; format: cell-based; conditions: 25 μM, evident at 30 minutes, lasted up to 3 hours
Protocol: Specifically, FIG. 1 evidences the effects of compound of Example 7 or vehicle (0.1% DMSO in DMEM) on AC activity and ceramide levels in A375 (left panel) or MeWo (right panel) human melanoma cell lines. (A-B) Intact cells were treated with compound of Example 7 (25 μM) or vehicle and AC activity was measured 30 minutes or 3 hours later in cell lysates. (B) Intact cells were exposed to compound of Example 7 (25 μM) for 2 hours or 24 hours and medium chain ceramides (C-D), long chain ceramides (E-F) and dihydroceramides (G-H) were quantified. Results are expressed as mean±s.e.m. (n=3). *p<0.05, **p<0.01, ***p<0.001 vs vehicle, two-way ANOVA followed by Dunnet.
hAC protein preparation (10 μg) was preincubated with inhibitors (final DMSO concentration 1%) in assay buffer (100 mM sodium phosphate, 0.1% Nonidet P-40, 150 mM NaCl, 3 mM DTT, 100 mM sodium citrate, pH 4.5) for 30 min at 37° C. Reactions were started by the addition of 50 μM N-lauroyl ceramide (Nu-Chek Prep, Elysian, Minn.) and carried on for 30 min at 37° C. […] The organic phases were collected, dried under nitrogen and analyzed by UPLC/MS (Acquity, Waters). […]
The [M−H]^− ion was monitored in the selected-ion monitoring mode (m/z values: lauric acid 199, 11-lauroleic acid 197.35). […] Inhibition of AC activity was calculated as reduction of lauric acid in the samples compared to vehicle controls. […]

[1] = biological target: human (hAC) acid ceramidase (Homo sapiens (Human), UniProt Q13510); test: fluorescent-based in vitro assay on human acid ceramidase; format: biochemical; conditions: hAC-enriched lysosomal lysate from HEK293 cells; fluorogenic probe 5 μM; pH 4.5
Sequence of human (hAC) acid ceramidase (Q13510 22-142): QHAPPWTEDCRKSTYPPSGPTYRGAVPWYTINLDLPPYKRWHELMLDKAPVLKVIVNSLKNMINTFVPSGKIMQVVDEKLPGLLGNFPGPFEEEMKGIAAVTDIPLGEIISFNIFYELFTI
Sequence of human (hAC) acid ceramidase (Q13510 143-395): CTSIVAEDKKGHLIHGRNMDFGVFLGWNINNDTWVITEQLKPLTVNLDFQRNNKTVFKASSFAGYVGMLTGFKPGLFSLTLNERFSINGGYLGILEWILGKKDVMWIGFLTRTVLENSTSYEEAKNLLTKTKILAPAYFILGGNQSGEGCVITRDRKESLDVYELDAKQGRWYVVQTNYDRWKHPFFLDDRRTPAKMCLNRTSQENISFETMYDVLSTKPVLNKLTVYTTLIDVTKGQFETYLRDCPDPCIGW
From the text: To evaluate the potency of the compounds towards acid ceramidase, a fluorescence-based in vitro assay previously described in literature (Bedia C et al., ChemBioChem, 2007, 8, 642-648) was implemented and optimized. This assay is based on a “fluorogenic probe” containing a coumarin group and a sphingoid base moiety (see figure below), which is not fluorescent in itself, but upon enzymatic cleavage by acid ceramidase followed by a chemical transformation liberates the fluorescent molecule umbelliferone (7-hydroxychromen-2-one). By quantifying the generation of umbelliferone using a fluorescence plate-reader, the level of enzymatic activity can be measured, whereby IC50 values of compounds that inhibit this activity can be generated.
Lysosomal lysate, enriched with acid ceramidase, was prepared from a cell line stably expressing human acid ceramidase. In the assay, the fluorogenic probe (or substrate) serves as a ceramide-analogue, which is recognized and hydrolyzed at the amide bond by acid ceramidase from the enriched lysate to yield the fatty acid and coumarinic aminodiol. By treating the solution with sodium periodate (NaIO4), the coumarinic aminodiol is subsequently oxidized into an aldehyde intermediate, which undergoes a β-elimination reaction to release the strongly fluorescent umbelliferone.
A lysosomal human acid ceramidase protein preparation was obtained from HEK293 cells stably expressing acid ceramidase suspended in 20 mM Tris HCl (pH 7.5) with 0.32 M sucrose. The cell solution was sonicated and centrifuged at 800×g for 15 min at 4° C. Supernatants were then centrifuged at 12,000×g for 30 min at 4° C. Pellets were re-suspended in PBS pH 7.4 and subjected to two freeze-thaw cycles at −80° C. The suspension was finally centrifuged at 105,000×g for 1 hour at 4° C. and protein concentration was measured in the supernatant with bicinchinonic-acid based protein assay. This human acid ceramidase-enriched preparation allowed us to further optimize the enzymatic assay and to use smaller amounts of lysate (2 μg/well) and substrate (5 μM).
The assay was performed in Optiplate 96-wells black plates, with each reaction well containing a mixture of 25 mM sodium acetate buffer pH 4.5 and a fixed amount of protein (2 μg) in a volume of 85 μL. After 30 mins of pre-incubation with test compounds (diluted 20× from DMSO stock solutions at different concentrations), the fluorogenic probe was added (diluted 20× from EtOH stock solution, final concentration 5 μM). After incubation for 3 hours at 37° C., the reactions were stopped with 50 μL of methanol and 100 μL of a 2.5 mg/mL NalO4 fresh solution in 100 mM Glycine/NaOH pH 10.6. The plate was incubated at 37° C. for 2 hours in the dark and fluorescence intensities were measured at excitation/emission wavelengths of 360/446 nm. Negative control samples consisted of the same incubation mixture in the absence of protein extracts. The IC50 values or percent of inhibition, at the indicated concentration, of selected compounds described in the invention are reported in Table 2.

COX2 (h) = COX2 (h) (Homo sapiens (Human), UniProt P35354); test: Cerep enzyme inhibition screen: COX2; format: biochemical; conditions: mean of two determinations, read-out: Inhibitory activity (% Inh. at 10 μM), mean
Sequence of COX2 (h) (P35354 18-604): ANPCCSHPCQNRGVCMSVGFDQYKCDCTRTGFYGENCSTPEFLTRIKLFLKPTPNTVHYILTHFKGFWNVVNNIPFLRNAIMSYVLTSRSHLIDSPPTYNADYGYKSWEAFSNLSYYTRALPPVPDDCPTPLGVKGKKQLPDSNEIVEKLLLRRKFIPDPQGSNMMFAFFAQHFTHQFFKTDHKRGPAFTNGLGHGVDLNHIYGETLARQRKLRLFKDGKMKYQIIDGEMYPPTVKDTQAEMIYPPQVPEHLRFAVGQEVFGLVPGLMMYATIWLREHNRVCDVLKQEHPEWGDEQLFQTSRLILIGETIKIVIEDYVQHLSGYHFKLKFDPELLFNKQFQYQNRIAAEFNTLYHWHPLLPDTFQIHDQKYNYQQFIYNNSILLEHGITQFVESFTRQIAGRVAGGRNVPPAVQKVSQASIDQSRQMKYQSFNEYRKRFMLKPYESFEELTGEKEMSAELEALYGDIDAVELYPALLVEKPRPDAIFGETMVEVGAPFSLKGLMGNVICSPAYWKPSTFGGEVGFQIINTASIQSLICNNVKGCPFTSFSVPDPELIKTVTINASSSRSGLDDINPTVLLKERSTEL
From the text: (§1) Compound of Example 25 falling in both Formula (I) and (Ia) was selected to be tested for off-target effects on a set of enzymes that include proteases (aspartic, cysteine, and serine), cyclooxygenases as well as lipoxygenases and group IV phospholipase (sPLA2) (Table 3). [table]

[2] = tested on: proteases (aspartic, cysteine, and serine), cyclooxygenases, lipoxygenases and group IV phospholipase (sPLA2); test: off-target test on a set of enzymes (overall statement); format: biochemical; conditions: 10 μM
From the text: as §1

Sequence of AC (Q13510 22-142): as the sequence (Q13510 22-142) above
Sequence of AC (Q13510 143-395): as the sequence (Q13510 143-395) above

SMILES | AC activity (AC) | IC50 [1] [nM] | inhibition at 10 µM (COX2 (h)) [%] | activity towards the off-target enzyme set [2]
O=C(NCCCCc1ccccc1)n1c(=O)oc2cc(Br)ccc21 [Example 7, 6-Bromo-2-oxo-N-(4-phenylbutyl)-1,3-benzoxazole-3-carboxamide] | reduction in AC activity | 33 ± 9 | – | –
O=C(NCCCCc1ccccc1)n1c(=O)oc2cc(-c3ccc(F)cc3)ccc21 [Example 25, 6-(4-Fluorophenyl)-2-oxo-N-(4-phenylbutyl)-1,3-benzoxazole-3-carboxamide] | – | – | 6.7 | has not any significant activity
